Key:
[1] = biological target: T1, Peptidyl-prolyl cis-trans isomerase D (Homo sapiens, UniProt Q08752); assay: Inhibition of cyclosporin binding to Cyp40 by fluorescence polarization competition assay
[2] = biological target: T2, Peptidyl-prolyl cis-trans isomerase A (Homo sapiens, UniProt P62937); assay: Inhibition of cyclosporin binding to Cyp18 by fluorescence polarization competition assay
[3] = biological target: T1, Peptidyl-prolyl cis-trans isomerase D; assay: Inhibition of Cyclophilin 40 PPIase activity
[4] = biological target: T2, Peptidyl-prolyl cis-trans isomerase A; assay: Inhibition of Cyclophilin 18 PPIase activity

T1 sequence (Q08752 whole entry): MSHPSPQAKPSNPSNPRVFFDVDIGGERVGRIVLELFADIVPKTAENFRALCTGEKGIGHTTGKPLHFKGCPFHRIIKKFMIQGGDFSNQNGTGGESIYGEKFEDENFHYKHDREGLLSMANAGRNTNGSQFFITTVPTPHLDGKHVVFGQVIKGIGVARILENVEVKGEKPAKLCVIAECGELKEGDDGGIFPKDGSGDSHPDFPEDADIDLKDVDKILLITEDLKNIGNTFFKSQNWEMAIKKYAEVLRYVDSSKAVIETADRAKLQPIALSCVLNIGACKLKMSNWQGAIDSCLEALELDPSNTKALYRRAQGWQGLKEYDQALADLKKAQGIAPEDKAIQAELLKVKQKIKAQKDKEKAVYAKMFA
T2 sequence (P62937 whole entry): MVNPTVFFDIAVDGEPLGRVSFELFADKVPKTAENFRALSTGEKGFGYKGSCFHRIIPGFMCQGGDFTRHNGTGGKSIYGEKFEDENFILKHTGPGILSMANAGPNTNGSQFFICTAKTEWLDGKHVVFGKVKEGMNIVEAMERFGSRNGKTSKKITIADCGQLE

Kd [1]: 101 nM | Kd [2]: 12 nM | Ki [3]: 12 nM | Ki [4]: 106 nM
SMILES: CC[C@@H]1NC(=O)[C@H]([C@H](O)[C@H](C)C/C=C/c2ccc(CNC(=O)c3ccc(-c4c5ccc(=O)cc-5oc5cc(O)ccc45)c(C(=O)O)c3)cc2)N(C)C(=O)[C@H](C(C)C)N(C)C(=O)[C@H](CC(C)C)N(C)C(=O)[C@H](CC(C)C)N(C)C(=O)[C@@H](C)NC(=O)[C@H](C)NC(=O)[C@H](CC(C)C)N(C)C(=O)[C@H](C(C)C)NC(=O)[C@H](CC(C)C)N(C)C(=O)CN(C)C1=O

Source: ChEMBL document CHEMBL1687693, “Facile synthesis of a fluorescent cyclosporin a analogue to study cyclophilin 40 and cyclophilin 18 ligands” (ACS Med Chem Lett, 2010)
